As a reminder, the pIC50 is the negative decadic logarithm of the IC50, by convention in mol/L.

Each structure is given as a SMILES string. pIC50: −log10 of the molar value. Read-outs that look alike come from different tables or passages of the source.

In series [1] the test system is J774 macrophages. Kind of series: Resazurin Macrophage J774 Viability Assay. The format is cell-based. The conditions noted are these: Mus musculus, 6 point concentration range 10 μM to 10 nM, n = 3 replicates, mean of 2 independent experiments, 72 hour incubation, read-out: IC50 (1). The procedure: Potency was assessed using a viability assay based on the survival of the J774 macrophage cell line. Macrophages are closely related to osteoclasts and have been used previously as a model system for osteoclast survival (see, e.g., Luckman et al., 1998, “Heterocycle-containing bisphosphonates cause apoptosis and inhibit bone resorption by preventing protein prenylation: evidence from structure-activity relationships in J774 macrophages,” J. Bone Miner. Res., Vol. 13, pp. 1668-1678). The model is indicative both of effects on bone protection in diseases such as osteoporosis, osteoarthritis and rheumatoid arthritis, and of effects on inflammation since, like osteoclasts, J774 macrophages are dependent for survival on continued NFκB activation.
In vitro potency of test compounds was determined by incubation with J774 macrophages and subsequent determination of cell viability using resazurin.
Resazurin is a redox dye commonly used as an indicator of viability in cultured cells (see, e.g., Anoopkumar-Dukie, 2005, British Journal of Radiology, Vol. 78, pp. 945-947). It is non-toxic to cells and stable in culture medium, allowing continuous measurement of cell proliferation in vitro as either a kinetic or endpoint assay. The assay is based on the ability of viable, metabolically-active cells to reduce resazurin (which is blue and non-fluorescent) to resorufin and dihydroresorufin (which are red and fluorescent) using electrons from reducing species, such as nicotinamide adenine dinucleotide (NADPH) and flavin adenine dinucleotide (FADH). This transformation, from oxidised form to reduced form, can be measured either colorimetrically or fluorometrically. Insults that impair cell viability and proliferation also affects the capacity of cells to reduce resazurin, and the rate of dye reduction is directly proportional to the number of viable cells present.
For fluorescence measurements, 530-560 nm excitation and 590 nm emission wavelengths are typically used. For colorimetric measurements, absorbance at 570 nm (reduced form) and 600 nm (oxidised form) is typically measured. A simple calculation is performed to determine the relative quantities of the two species: a high ratio of resorufin (the reduced form) to resazurin (the oxidised form) is an indicator that cells are proliferating and viable. A low ratio indicates cells that are quiescent or non-viable.
J774 cells were plated at 10^4 cells per well in 100 μL αMEM (α Modified Eagle Medium) in 96-well plates and allowed to adhere overnight. The following day, test compounds were prepared as 100 mM solutions in DMSO. These stock solutions were diluted in DMSO and then diluted 1000× in culture medium (αMEM) before being added directly to the wells so as to give the desired final compound concentration. After a 72 hour incubation at 37° C./5% CO2, resazurin (Alamar Blue, Biosource International) was added to each well (1:10 v/v, 10 μL). The plate was then incubated at 37° C. for 3 hours and fluorescence was measured at 590 nm, with a 25 nm bandwidth.
The average results for each test compound were expressed as a percent (%) of the average control value reflecting cell viability. The average values across the concentrations tested were then plotted and the IC50 for was calculated by fitting the data to a 4-parameter IC50 equation using software from Grafit (Erithacus Software). Each experiment was repeated twice and the data are presented as the mean IC50 from both experiments.

Series [2] relates to J774 macrophages. Kind of series: Resazurin Macrophage J774 Viability Assay. The conditions noted are these: Mus musculus, 12 point concentration range 10 μM to 0.5 nM, n = 4 replicates, mean of 3 independent experiments, 72 hour incubation, read-out: IC50 (2). The format is cell-based. In general terms: Resazurin is reduced to fluorescent resorufin, in cell work by metabolically active cells.

A short description of series [3]: Human Liver Microsomal Stability. The note with it: both sexes, pooled liver microsomes, 1 μM compound. The class given is in vitro ADME. The procedure:
Metabolic stability was measured by determining the rate of disappearance of compound in the presence of human liver microsomal preparations, as quantified by liquid chromatography mass-spectrometry and […] mass-spectrometry (LC-MS/MS).
Metabolic stability of test compounds was measured by determination of the rate of disappearance of the compound when incubated in the presence of human liver microsomes. Liver microsomes are prepared from the endoplasmic reticulum of hepatocytes and are the primary source of the most important enzymes (cytochrome P450s) involved in drug metabolism. Study of drug stability in the presence of liver microsomes is accepted as a valuable model permitting rapid prediction of in vivo drug stability.
Human liver microsomes were obtained from a commercial source. Test compounds (1 μM) were incubated with pooled liver microsomes (male and female). Samples were incubated for a 60 minute period and removed at up to 6 time points and analysed by LC-MS/MS for the presence/amount of test compounds.
Microsomes (final protein concentration 0.25 or 0.5 mg/mL), 0.1 M phosphate buffer pH 7.4, and test compound (final concentration 1 μM; diluted from 10 mM stock solution to give a final DMSO concentration of 0.1%) were incubated at 37° C. prior to the addition of Nicotinamide adenine dinucleotide phosphate (NADPH, final concentration 1 mM) to initiate the reaction. The final incubation volume was 100 μL. A control incubation was included for each compound tested, where 0.1 M phosphate buffer pH 7.4 was added instead of NADPH. […]
Each compound was incubated for 0, 5, 15, 30, 45 or 60 minutes. The reactions were stopped by the addition of 100 μL ice-cold acetonitrile containing internal standard (0.001 mM glipizide) at the appropriate time points. The incubation plates were centrifuged at 4000 rpm for 15 minutes at 4° C. to precipitate the protein and 0.1 mL aliquots were analysed using LC-MS/MS, with the conditions shown in the following table.
From a plot of the natural logarithm of the peak area ratio (i.e., the ratio of compound peak area:internal standard peak area) against time, the gradient of the line was determined.

The mark [4] stands for this setting: pH 7.4, human liver microsomes 0.25 mg/mL protein, 5 time points 0-60 min, one replicate, read-out: T1/2 (1).
[5] abbreviates: pH 7.4, human liver microsomes 0.5 mg/mL protein, 6 time points 0-60 min, two replicates, read-out: T1/2 (2).

Consider `Cc1cc(S(=O)(=O)NC2CCC(C)(O)CC2)ccc1-c1ccc(F)cc1F` (single isomer, unassigned) [REF001, reference compound], for which the negative-log IC50 (pIC50) is 6.92 in series [1] and 7.30 in series [2]. Besides, in series [3] (setting [4]), the half-life at 1 μM was found to be 0.717 h.

`Cc1cc(S(=O)(=O)N[C@H]2CC[C@H](O)CC2)ccc1-c1ccc(F)cc1F` [ABD735]: in series [1], the pIC50 is 7.00. Also, the half-life at 1 μM in series [3] (setting [4]) was 8.73 h.

Consider `O=S(=O)(N[C@H]1CC[C@H](O)CC1)c1ccc(-c2ncc(Cl)cc2Cl)cc1` [ABD836, reference compound], for which the pIC50 in series [1] was 6.55. Also, the half-life at 1 μM in series [3] (setting [4]) was greater than 15 h.

As for `C[C@]1(O)CC[C@@H](NS(=O)(=O)c2ccc(-c3ccc(F)cc3F)cc2)CC1` [ABD899, reference compound], the pIC50 in series [1] was 7.10. The half-life at 1 μM was 1.2 h in series [3] (setting [4]) and 1.75 h in series [3] (setting [5]).

`C[C@]1(O)CC[C@H](NS(=O)(=O)c2ccc(-c3ccc(F)cc3F)cc2)CC1` [ABD900, reference compound]: the negative logarithm of the IC50 (pIC50) in series [1] was 6.25. Moreover, in series [3] (setting [5]), the half-life at 1 μM came to 1.45 h.

With `C[C@]1(O)CC[C@H](NS(=O)(=O)c2ccc(-c3ccc(Cl)cc3C#N)cc2)CC1` [HMC-C-01-A, 4′-Chloro-2′-cyano-N-((1r,4r)-4-hydroxy-4-methylcyclohexyl)biphenyl-4-sulfonamide], the negative-log IC50 (pIC50) in series [1] was 6.89; in series [2], 5.72. Moreover, in series [3] (setting [4]), the half-life at 1 μM turned out to be 1.37 h.

`C[C@]1(O)CC[C@@H](NS(=O)(=O)c2ccc(-c3ccc(Cl)cc3C#N)cc2)CC1` [HMC-C-01-B, 4′-Chloro-2′-cyano-N-((1s,4s)-4-hydroxy-4-methylcyclohexyl)-[1,1′-biphenyl]-4-sulfonamide]: in series [2], the pIC50 is 6.80. For the same molecule, the half-life at 1 μM in series [3] (setting [5]) is 1.17 h.

`C[C@]1(O)CC[C@H](NS(=O)(=O)c2ccc(-c3ccc(F)cc3C(F)(F)F)cc2)CC1` [HMC-C-02-A, 4′-Fluoro-N-((1r,4r)-4-hydroxy-4-methylcyclohexyl)-2′-(trifluoromethyl)biphenyl-4-sulfonamide]: the negative logarithm of the IC50 (pIC50) in series [1] was 6.59; in series [2], 4.83. In addition, the half-life at 1 μM in series [3] (setting [4]) worked out at 0.917 h.

Consider `C[C@]1(O)CC[C@@H](NS(=O)(=O)c2ccc(-c3ccc(F)cc3C(F)(F)F)cc2)CC1` [HMC-C-02-B, 4′-Fluoro-N-((1s,4s)-4-hydroxy-4-methylcyclohexyl)-2′-(trifluoromethyl)-[1,1′-biphenyl]-4-sulfonamide], for which the pIC50 in series [2] was 5.76. In series [3] (setting [5]), the half-life at 1 μM is 0.3 h.

Take `C[C@]1(O)CC[C@H](NS(=O)(=O)c2ccc(-c3c(F)cc(F)cc3F)cc2)CC1` [HMC-C-03-A, 2′,4′,6′-Trifluoro-N-((1r,4r)-4-hydroxy-4-methylcyclohexyl)biphenyl-4-sulfonamide]: the pIC50 was 6.85 in series [1] and 6.39 in series [2]. Further, the half-life at 1 μM in series [3] (setting [4]) worked out at 1.4 h.

In the case of `C[C@]1(O)CC[C@@H](NS(=O)(=O)c2ccc(-c3c(F)cc(F)cc3F)cc2)CC1` [HMC-C-03-B, 2′,4′,6′-Trifluoro-N-((1s,4s)-4-hydroxy-4-methylcyclohexyl)-[1,1′-biphenyl]-4-sulfonamide], the negative logarithm of the IC50 (pIC50) in series [2] was 6.70. The half-life at 1 μM in series [3] (setting [5]) worked out at 0.8 h.

For the molecule `C[C@]1(O)CC[C@H](NS(=O)(=O)c2ccc(-c3ccc(F)cc3F)c(F)c2)CC1` [HMC-C-04-A, 2,2′,4′-Trifluoro-N-((1r,4r)-4-hydroxy-4-methylcyclohexyl)-[1,1′-biphenyl]-4-sulfonamide], the negative logarithm of the IC50 (pIC50) in series [2] is 6.30. For the same molecule, in series [3] (setting [5]), the half-life at 1 μM was 1.67 h.

Turning to `C[C@]1(O)CC[C@@H](NS(=O)(=O)c2ccc(-c3ccc(F)cc3F)c(F)c2)CC1` [HMC-C-04-B, 2,2′,4′-Trifluoro-N-((1s,4s)-4-hydroxy-4-methylcyclohexyl)-[1,1′-biphenyl]-4-sulfonamide], the pIC50 in series [2] is 7.22. For the same molecule, in series [3] (setting [5]), the half-life at 1 μM worked out at 1.78 h.

For the molecule `C[C@]1(O)CC[C@H](NS(=O)(=O)c2ccc(-c3ncc(F)cc3F)c(F)c2)CC1` [HMC-N-01-A, 4-(3,5-Difluoropyridin-2-yl)-3-fluoro-N-((1r,4r)-4-hydroxy-4-methylcyclohexyl)benzenesulfonamide], the negative logarithm of the IC50 (pIC50) in series [1] is 6.89; in series [2], 5.58. Moreover, the half-life at 1 μM in series [3] (setting [4]) was 2.92 h.

`C[C@]1(O)CC[C@@H](NS(=O)(=O)c2ccc(-c3ncc(F)cc3F)c(F)c2)CC1` [HMC-N-01-B, 4-(3,5-Difluoropyridin-2-yl)-3-fluoro-N-((1s,4s)-4-hydroxy-4-methylcyclohexyl)benzenesulfonamide]: in series [2], the pIC50 is 6.85. Besides, the half-life at 1 μM in series [3] (setting [5]) came to 2.12 h.

With `C[C@]1(O)CC[C@H](NS(=O)(=O)c2ccc(-c3ncc(F)cc3F)cc2)CC1` [HMC-N-02-A, 4-(3,5-Difluoropyridin-2-yl)-N-((1r,4r)-4-hydroxy-4-methylcyclohexyl)benzenesulfonamide], the results for the negative logarithm of the IC50 (pIC50) in series [1] and in series [2] were 6.74 and 5.34, respectively. Besides, in series [3] (setting [4]), the half-life at 1 μM was determined as 6.12 h.

With `C[C@]1(O)CC[C@@H](NS(=O)(=O)c2ccc(-c3ncc(F)cc3F)cc2)CC1` [HMC-N-02-B, 4-(3,5-Difluoropyridin-2-yl)-N-((1s,4s)-4-hydroxy-4-methylcyclohexyl)benzenesulfonamide], the pIC50 in series [2] is 6.44. Moreover, the half-life at 1 μM in series [3] (setting [5]) worked out at 2.8 h.

Regarding `C[C@]1(O)CC[C@H](NS(=O)(=O)c2ccc(-c3ncc(Cl)cc3Cl)cc2)CC1` [HMC-N-03-A, 4-(3,5-Dichloropyridin-2-yl)-N-((1r,4r)-4-hydroxy-4-methylcyclohexyl)benzenesulfonamide], the negative logarithm of the IC50 (pIC50) was 6.77 in series [1] and 6.21 in series [2]. The half-life at 1 μM in series [3] (setting [4]) worked out at 4.3 h.

With `C[C@]1(O)CC[C@@H](NS(=O)(=O)c2ccc(-c3ncc(Cl)cc3Cl)cc2)CC1` [HMC-N-03-B, 4-(3,5-Dichloropyridin-2-yl)-N-((1s,4s)-4-hydroxy-4-methylcyclohexyl)benzenesulfonamide], in series [2], the negative logarithm of the IC50 (pIC50) was 7.10. Besides, the half-life at 1 μM in series [3] (setting [5]) amounted to 1.17 h.

For the molecule `C[C@]1(O)CC[C@H](NS(=O)(=O)c2ccc(-c3ncc(Cl)cc3Cl)c(F)c2)CC1` [HMC-N-04-A, 4-(3,5-Dichloropyridin-2-yl)-3-fluoro-N-((1r,4r)-4-hydroxy-4-methylcyclohexyl)benzenesulfonamide], the negative logarithm of the IC50 (pIC50) in series [1] is 6.74. In addition, the half-life at 1 μM in series [3] (setting [4]) was 2.6 h.

For the origin of these results see US9624167B2, “N-(4-hydroxy-4-methyl-cyclohexyl)-4-phenyl-benzenesulfonamides and N-(4-hydroxy-4-methyl-cyclohexyl)-4-(2-pyridyl)benzenesulfonamides and their therapeutic use” (PIMCO 2664 LIMITED, priority 2013, dated 2017).
